The values that follow come from patent publication US20080069809A1, “Compositions and methods for the diagnosis and treatment of cancer” (priority 2006, published 2008).

Experiment [1] has as its system primary AML blasts. The experiment in a line: Apoptosis in primary AML blasts from patient bone marrow. In kind it is cell-based, human. As for the experimental part: The myeloid leukemic cell lines HL60, NB60, NB4, U937, K562 and KG1a were all grown in RPMI 1640 medium (Life Technologies, Paisley, United Kingdom) supplemented with 10% v/v fetal calf serum (Sear Laboratories International Crawley, United Kingdom), 100 U/mL penicillin, and 100 μg/mL streptomycin (Sigma Aldrich, Poole, United Kingdom) at 37° C. and 5% v/v CO2. AML blasts were isolated from patient bone marrow aspirates and peripheral blood of eight patients at diagnosis or relapse. Patients were not receiving AML therapy at time of sampling. Blasts were isolated by Ficoll density centrifugation and were cultured in serum-free insulin transferrin selenium-positive (ITS+) medium (Life Technologies) containing 300 ng/mL stem cell factor (SCF) and 10 ng/mL interleukin 3 (IL3; R and D Systems, Abingdon, United Kingdom) and antibiotics. Blast purity ranged from 80% to 95%, as assessed by expression of CD34. Normal myeloblasts were isolated from cord blood or adult mobilized peripheral blood. Briefly, CD34^+ cells were indirectly selected from the mononuclear cell preparations using antibody-coated magnetic beads (Miltenyi Biotec, United Kingdom).
To determine the effects of ingenol-3-angelate (PEP005), cells were incubated for up to 5 days with medium alone or PEP005 at a range of concentrations from 0.2 nM to 20 μM. […] Apoptosis and differentiation were assessed after 1 to 5 days.
(§1) Cell differentiation was determined by staining of cells with anti-CD11b antibody as a general early marker of myeloid differentiation. In studies with HL60 cells, PEP005-treated and 20 nM phorbol myristate (PMA)-treated (Sigma Aldrich) cells were also assessed for their ability to phagocytose complement-coated yeast, a marker of a fully differentiated myeloid cell, as previously described (Toksoz et al, Leukemia Res 6:491-498, 1982). […] Images were captured with a SPOT2 cameria (Diagnostic Instructions, Sterling Heights, Mich.) and analyzed using Image-Pro 4.0 software (Media Cybernetics, Silver Spring, Md.).

The subject of experiment [2] is EGFP-positive KG1a cells transfected with control vector. Description: Apoptosis in KG1a cells transfected with control vector pEGFP. Format: cell-based. As to conditions: even at 20 μM PEP005, 3 days. As for the experimental part:
(§2) KG1a cells were transiently transfected with EGFP-tagged mouse PKC-δ subcloned into pEGFP-N1 plasmid (available from National Cancer Institute [NCI], Bethesda, Md.) using an Amaxa nucleofection apparatus (Amaxa, Koeln, Germany). Transfection efficiency was approximately 35% as judged by fluorescence-activated cell sorter (FACS) analysis and cells were treated with PEP005 (0.2 μM-20 μM) 24 hours after transfection. Cell viability in EGFP-positive cells was assessed by analysis of cell morphology (forward scatter and side scatter profile) by FACS and loss of viability confirmed in the total cell culture by MTT assay after 3 days. Briefly, 24 hours after transfection, 2×10^4 cells were plated in five wells in 96-well plates and exposed to […] PEP005. At 72 hours, 20 μL MTT substrate at 5 mg/mL was added and plates were incubated at 37° C. After 3 hours, 150 μL media was removed and replated with 200 μL dimethyl sulfoxide (DMSO). Absorbance at an optical density (OD) of 550 nm was read on a Biotech plate reader (Amersham Pharmacia) and corrected for absorbance obtained from blank media controls.

Experiment [3] addresses T1, PKC-δ (Homo sapiens, UniProt Q05655).
T1 construct: endogenous in cells; host or cells: HL60
The experiment in a line: PKC-δ cleavage to 40-kDa fragment in HL60 cells (Western blotting). As to conditions: 20 nM PEP005 for up to 9 hours. Format: cell-based. As for the experimental part:
PKC isoenzyme expression in leukemic cell lines was determined by Western blotting. Cells (0.5×10^6) were lysed in lysis buffer (20 mM Tris [tris(hydroxymethyl-aminomethane]-HCl, pH 7.4, containing 150 mM NaCl, 0.5 mM EDTA [ethylenediaminetertraacetic acid], 1 mM dithiothreitol, 1 mM phenymethlsulfonylfuoride, 10 μg/mL of aprotinin, leupeptin, and pepstatin A, and 1% Triton-X-100). the lysate was spun at 1000 g for 10 minutes to isolate nuclei and was then combined 1:1 with sodium dodecyl sulfate (SDS) sample buffer and boiled for 5 minutes. The extracts were then analyzed by Western blotting using antibodies to the major isoenzymes found in myeloid cells, namely PKC-α, PKC-β, PKC-δ and PKC-ξ (all purchased from Santa Cruz Biotechnology, Santa Cruz, Calif.). Blots were developed using an enhanced chemiluminescence (ECL) method (Amersham Pharmacia, Buckinghamshire, United Kingdom).
Background: In western blotting, separated proteins are transferred to a membrane and probed.

For experiment [4], the system named is HL60. The experiment in a line: Phagocytosis of complement-coated yeast by HL60 cells. As to conditions: after 3 days of treatment, PMA 20 nM. Format: cell-based. As for the experimental part: Cell differentiation was determined by staining of cells with anti-CD11b antibody as a general early marker of myeloid differentiation. In studies with HL60 cells, PEP005-treated and 20 nM phorbol myristate (PMA)-treated (Sigma Aldrich) cells were also assessed for their ability to phagocytose complement-coated yeast, a marker of a fully differentiated myeloid cell, as previously described (Toksoz et al, Leukemia Res 6:491-498, 1982). The ingestion of three or more yeasts was taken as a positive result. In normal cord blood or adult bone marrow myeloblasts, loss of CD34 was taken as a marker of differentiation. Isotype-matched controls were used and all antibodies were from DAKO (Cambridge, United Kingdom). […] Cells were also used to prepare cytospins, which were then differentially stained using a commercial May-Grünwald-Ginesa stain (Diff-Kwik; Gamidor, Abingdon, United Kingdom) to identify cells with a blast or differentiated or apoptotic morphology. Slides were examined using a Zeiss III RS brightfield microscope equipped with a 40×/0.75 water-immersion objective (Carl Zeiss, Jena, Germany). Images were captured with a SPOT2 cameria (Diagnostic Instructions, Sterling Heights, Mich.) and analyzed using Image-Pro 4.0 software (Media Cybernetics, Silver Spring, Md.).

For experiment [5], the system named is Normal CD34+ myeloblasts. The experiment in a line: Differentiation of normal CD34+ myeloblasts (loss of CD34, morphology). As to conditions: doses of 20 nM to 2.0 μM PEP005. Format: cell-based, human. As for the experimental part:
(§3) The myeloid leukemic cell lines HL60, NB60, NB4, U937, K562 and KG1a were all grown in RPMI 1640 medium (Life Technologies, Paisley, United Kingdom) supplemented with 10% v/v fetal calf serum (Sear Laboratories International Crawley, United Kingdom), 100 U/mL penicillin, and 100 μg/mL streptomycin (Sigma Aldrich, Poole, United Kingdom) at 37° C. and 5% v/v CO2. AML blasts were isolated from patient bone marrow aspirates and peripheral blood of eight patients at diagnosis or relapse. Patients were not receiving AML therapy at time of sampling. […] Blast purity ranged from 80% to 95%, as assessed by expression of CD34. […]
as §1

Experiment [6] deals with HL60. Description: Differentiation (CD11b expression) in HL60 cells. In kind it is cell-based. As for the experimental part: as §3, §1
Experiment [7] deals with K562. Description: Differentiation (CD11b expression) in K562 cells. Format: cell-based. As for the experimental part: as §3, §1
In experiment [8] the test system is EGFP-positive PKC-δ-expressing KG1a cells. The experiment in a line: Apoptosis / viability in KG1a cells transfected with EGFP-PKC-δ. Format: cell-based. As for the experimental part: as §2

T1 sequence (Q05655 whole entry): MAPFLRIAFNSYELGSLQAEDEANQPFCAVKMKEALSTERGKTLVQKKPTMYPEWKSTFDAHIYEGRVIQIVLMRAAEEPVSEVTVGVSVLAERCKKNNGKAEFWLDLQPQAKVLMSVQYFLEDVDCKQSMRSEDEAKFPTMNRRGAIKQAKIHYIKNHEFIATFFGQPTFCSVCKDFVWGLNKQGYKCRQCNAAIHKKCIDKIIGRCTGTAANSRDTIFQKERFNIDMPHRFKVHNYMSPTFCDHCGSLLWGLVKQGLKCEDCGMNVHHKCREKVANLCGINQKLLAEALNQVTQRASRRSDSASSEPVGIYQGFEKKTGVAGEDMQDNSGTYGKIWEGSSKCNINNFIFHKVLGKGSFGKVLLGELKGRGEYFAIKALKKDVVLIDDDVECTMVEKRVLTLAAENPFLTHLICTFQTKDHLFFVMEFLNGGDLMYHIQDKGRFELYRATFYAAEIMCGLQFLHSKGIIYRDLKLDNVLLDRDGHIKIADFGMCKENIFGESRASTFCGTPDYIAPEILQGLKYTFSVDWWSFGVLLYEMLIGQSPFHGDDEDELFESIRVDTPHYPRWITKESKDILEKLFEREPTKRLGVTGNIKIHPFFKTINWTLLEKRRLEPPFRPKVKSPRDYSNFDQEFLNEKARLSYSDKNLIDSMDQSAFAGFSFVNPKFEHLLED

As for `C/C=C(/C)C(=O)O[C@H]1C(C)=C[C@]23C(=O)[C@@H](C=C(CO)[C@@H](O)[C@]12O)[C@H]1[C@@H](C[C@H]3C)C1(C)C` [PEP005, ingenol-3-angelate], the “viable blast cells / morphology” value in experiment [1] (after 48 hours of treatment with 20 nM PEP005) was “few viable AML blast cells remained”. Besides, the “patient AML blast samples induced to enter apoptosis” value in experiment [1] (blasts of eight AML patients) is “seven of these were induced to enter apoptosis”. Also, in experiment [1] (seven responsive AML samples), the “lowest PEP005 concentration inducing apoptosis” value was found to be 2 nM. The “apoptosis (forward and side scatter by FACS)” value in experiment [2] was “resistant to PEP005-induced apoptosis”; in experiment [8] (PEP005 for 3 days, 24 hours after transfection, doses commensurate with those in HL60, U937 and NB4), “resulted in apoptosis”. Besides, the “production of the 40-kDa fragment of PKC-δ” value in experiment [3] was “produced rapidly”. Besides, the “differentiation to phagocytes (ability to phagocytose yeast)” value in experiment [4] is listed as “did not lead to production of phagocytic cells”. In addition, in experiment [5], the “differentiation (loss of CD34, promyelocyte- and myelocyte-like morphologies)” value is “induced to differentiate”. For the same compound, the “synergy with ATRA in CD11b differentiation response” value in experiment [6] (10 nM ATRA and 20 nM PEP005 in combination, 5 days) is “able to synergize with ATRA”. Further, in experiment [6] (treated 5 days), the “PEP005 concentration with optimal effect, CD11b expression” value is recorded as 20 nM. In addition, in experiment [7], the CD11b expression result is “did not increase expression of CD11b”. Moreover, the “viability of total cell population by MTT assay” value in experiment [8] (PEP005, after 3 days) was “Loss of viability was confirmed”.
